# Laboratory results taken from PubChem BioAssay (NCI).
#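 Growth conditions: 96-well plates. Treatment: test compound, 48 hours, 5 concentrations. Analysis: linear interpolation between bracketing concentrations; unreached endpoints set to highest concentration. TGI is the concentration that stops growth completely.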
# What was measured:
# Test in all cases: NCI tumour cell line growth inhibition, 48 h
# 786-0 renal = tested on: 786-0 renal
# A498 renal = tested on: A498 renal
# A549 NSCLC = tested on: A549 NSCLC
# ACHN renal = tested on: ACHN renal
# BT-549 breast = tested on: BT-549 breast
# CAKI-1 renal = tested on: CAKI-1 renal
# CCRF-CEM leukemia = tested on: CCRF-CEM leukemia
# COLO 205 colon = tested on: COLO 205 colon
# DLD-1 colon = tested on: DLD-1 colon
# DMS 114 small cell lung = tested on: DMS 114 small cell lung
# DMS 273 small cell lung = tested on: DMS 273 small cell lung
# DU-145 prostate = tested on: DU-145 prostate
# EKVX NSCLC = tested on: EKVX NSCLC
# HCC-2998 colon = tested on: HCC-2998 colon
# HCT-116 colon = tested on: HCT-116 colon
# HCT-15 colon = tested on: HCT-15 colon
# HL-60(TB) leukemia = tested on: HL-60(TB) leukemia
# HOP-18 NSCLC = tested on: HOP-18 NSCLC
# HOP-62 NSCLC = tested on: HOP-62 NSCLC
# HOP-92 NSCLC = tested on: HOP-92 NSCLC
# HS 578T breast = tested on: HS 578T breast
# HT29 colon = tested on: HT29 colon
# IGROV1 ovarian = tested on: IGROV1 ovarian
# K-562 leukemia = tested on: K-562 leukemia
# KM12 colon = tested on: KM12 colon
# KM20L2 colon = tested on: KM20L2 colon
# LOX IMVI melanoma = tested on: LOX IMVI melanoma
# M14 melanoma = tested on: M14 melanoma
# M19-MEL melanoma = tested on: M19-MEL melanoma
# MALME-3M melanoma = tested on: MALME-3M melanoma
# MCF7 breast = tested on: MCF7 breast
# MDA-MB-231 breast = tested on: MDA-MB-231 breast
# MDA-MB-435 = tested on: MDA-MB-435
# MOLT-4 leukemia = tested on: MOLT-4 leukemia
# NCI-H226 lung = tested on: NCI-H226 lung
# NCI-H23 lung = tested on: NCI-H23 lung
# NCI-H460 lung = tested on: NCI-H460 lung
# NCI-H522 lung = tested on: NCI-H522 lung
# NCI/ADR-RES ovarian = tested on: NCI/ADR-RES ovarian
# OVCAR-3 ovarian = tested on: OVCAR-3 ovarian
# OVCAR-4 ovarian = tested on: OVCAR-4 ovarian
# OVCAR-5 ovarian = tested on: OVCAR-5 ovarian
# OVCAR-8 ovarian = tested on: OVCAR-8 ovarian
# P388 leukemia = tested on: P388 leukemia
# P388/ADR leukemia = tested on: P388/ADR leukemia
# PC-3 prostate = tested on: PC-3 prostate
# RPMI-8226 leukemia = tested on: RPMI-8226 leukemia
# RXF 393 renal = tested on: RXF 393 renal
# SF-268 CNS = tested on: SF-268 CNS
# SF-295 CNS = tested on: SF-295 CNS
# SF-539 CNS = tested on: SF-539 CNS
# SK-MEL-2 melanoma = tested on: SK-MEL-2 melanoma
# SK-MEL-28 melanoma = tested on: SK-MEL-28 melanoma
# SK-MEL-5 melanoma = tested on: SK-MEL-5 melanoma
# SK-OV-3 ovarian = tested on: SK-OV-3 ovarian
# SN12C renal = tested on: SN12C renal
# SN12K1 renal = tested on: SN12K1 renal
# SNB-19 CNS = tested on: SNB-19 CNS
# SNB-75 CNS = tested on: SNB-75 CNS
# SNB-78 CNS = tested on: SNB-78 CNS
# SR leukemia = tested on: SR leukemia
# SW-620 colon = tested on: SW-620 colon
# T-47D breast = tested on: T-47D breast
# TK-10 renal = tested on: TK-10 renal
# U251 CNS = tested on: U251 CNS
# UACC-257 melanoma = tested on: UACC-257 melanoma
# UACC-62 melanoma = tested on: UACC-62 melanoma
# UO-31 renal = tested on: UO-31 renal
compound,measurement,setting,value
CC(O)CCC(=O)c1ccoc1 (stereo not drawn),TGI,786-0 renal,> 10 mM
same,TGI,A498 renal,9.94 mM
same,TGI,A549 NSCLC,> 7.45 mM
same,TGI,ACHN renal,> 10 mM
same,TGI,BT-549 breast,> 10 mM
same,TGI,CAKI-1 renal,3.93 mM
same,TGI,CCRF-CEM leukemia,> 9.36 mM
same,TGI,COLO 205 colon,> 8.25 mM
same,TGI,DLD-1 colon,> 10 mM
same,TGI,DMS 114 small cell lung,> 9.67 mM
same,TGI,DMS 273 small cell lung,> 9.14 mM
same,TGI,DU-145 prostate,> 10 mM
same,TGI,EKVX NSCLC,> 9.74 mM
same,TGI,HCC-2998 colon,> 10 mM
same,TGI,HCT-116 colon,> 8.75 mM
same,TGI,HCT-15 colon,> 10 mM
same,TGI,HL-60(TB) leukemia,7.89 mM
same,TGI,HOP-18 NSCLC,> 10 mM
same,TGI,HOP-62 NSCLC,> 10 mM
same,TGI,HOP-92 NSCLC,8 mM
same,TGI,HS 578T breast,> 10 mM
same,TGI,HT29 colon,> 10 mM
same,TGI,IGROV1 ovarian,> 10 mM
same,TGI,K-562 leukemia,> 10 mM
same,TGI,KM12 colon,> 8.11 mM
same,TGI,KM20L2 colon,> 10 mM
same,TGI,LOX IMVI melanoma,> 10 mM
same,TGI,M14 melanoma,> 10 mM
same,TGI,M19-MEL melanoma,> 10 mM
same,TGI,MALME-3M melanoma,> 8.38 mM
same,TGI,MCF7 breast,> 10 mM
same,TGI,MDA-MB-231 breast,> 10 mM
same,TGI,MDA-MB-435,> 10 mM
same,TGI,MOLT-4 leukemia,> 9.43 mM
same,TGI,NCI-H226 lung,> 10 mM
same,TGI,NCI-H23 lung,> 10 mM
same,TGI,NCI-H460 lung,> 10 mM
same,TGI,NCI-H522 lung,8.27 mM
same,TGI,NCI/ADR-RES ovarian,> 9.75 mM
same,TGI,OVCAR-3 ovarian,9.96 mM
same,TGI,OVCAR-4 ovarian,> 7.94 mM
same,TGI,OVCAR-5 ovarian,> 10 mM
same,TGI,OVCAR-8 ovarian,> 10 mM
same,TGI,P388 leukemia,> 10 mM
same,TGI,P388/ADR leukemia,> 10 mM
same,TGI,PC-3 prostate,> 10 mM
same,TGI,RPMI-8226 leukemia,7.9 mM
same,TGI,RXF 393 renal,> 8.31 mM
same,TGI,SF-268 CNS,> 10 mM
same,TGI,SF-295 CNS,> 10 mM
same,TGI,SF-539 CNS,> 10 mM
same,TGI,SK-MEL-2 melanoma,> 8.11 mM
same,TGI,SK-MEL-28 melanoma,> 8.38 mM
same,TGI,SK-MEL-5 melanoma,8.03 mM
same,TGI,SK-OV-3 ovarian,> 7.94 mM
same,TGI,SN12C renal,9.93 mM
same,TGI,SN12K1 renal,> 10 mM
same,TGI,SNB-19 CNS,> 10 mM
same,TGI,SNB-75 CNS,9.65 mM
same,TGI,SNB-78 CNS,9.99 mM
same,TGI,SR leukemia,> 10 mM
same,TGI,SW-620 colon,> 10 mM
same,TGI,T-47D breast,> 10 mM
same,TGI,TK-10 renal,> 10 mM
same,TGI,U251 CNS,> 10 mM
same,TGI,UACC-257 melanoma,> 10 mM
same,TGI,UACC-62 melanoma,> 10 mM
same,TGI,UO-31 renal,9.12 mM
